# Results published in PMC9029893 (International Journal of Molecular Sciences, 2022).
# Legend:
# antithrombin III (AT) = antithrombin III (AT) (Homo sapiens, UniProt P01008); assay: Activity of antithrombin III (AT); format: biochemical
# Experimental: The activity of AT in human plasma was estimated spectrophotometrically using a diagnostic laboratory method. […] In the control samples, 10 μL of distilled water and methanol (1:1) was used. The reaction was initiated by the addition of a chromogenic substrate dissolved in water for injection; as a result, p-nitroaniline was released proportionally to the level of AT. The evaluation of AT level was performed on the basis of a calibration curve performed on calibrator diluted in the range 1:30–1:120 (λ = 405 nm) by the coagulometer program (CoagChrom-3003 Bio Ksel, Grudziadz, Poland). The coefficient of variability for the method (CV) was 2.69%, and the reference range was 80%–130%.
# [1] = tested on: clot formation and fibrinolysis in human citrate plasma; assay: Clot formation and fibrinolysis test (CL-test); format: biochemical
# Experimental: The effects of the […] on overall hemostasis potential by means of clot formation and fibrinolysis test (CL-test) were further tested based on the continuous measurement of the changes in optical transmittance over time, as described by Kostka et al. and Sikora et al.. These experiments were conducted using 470 µL of three-fold diluted human citrate plasma, 10 µL of the tested compounds, and 10 µL t-PA (final concentration in a sample 220 ng/mL). The clot formation was triggered by thrombin (10 µL, final concentration 0.5 IU/mL). The clot formation and lysis curves were determined at a wavelength of 405 nm with a spectrophotometer (Cecil CE 2021; London, UK) with circulating thermostated water (37 °C) and a Model 300 Electronic Stirrer (Rank Brothers Ltd., Cambridge, UK). The experiments were conducted in multiplicate (n = 5–7), and the results are presented as mean ± SD.
# The received graphs were analyzed using dedicated software to determine the kinetic parameters of clot formation, stabilization, and fibrinolysis. The following parameters of clot formation were determined: Tt—thrombin time (s), Fmax—maximum clotting (%T), Tf—plasma clotting time (s), Fvo—initial plasma clotting velocity (%T/min), Sr—area under the clot formation curve (%Txmin). The parameters of the clot stabilization phase comprised Tc—clot stabilization time (s), Sc—area under the curve of stable clot formation (%Txmin). The parameters of fibrinolysis comprised Lmax—maximum lysis (%T), Tl—fibrinolysis time (s), Lvo—initial clot fibrinolysis velocity (%T/min), Sf—area under the fibrinolysis curve (%Txmin). Additionally, the overall potential of clot formation and fibrinolysis (CLAUC, (%Txmin)) and total time of the process of clot formation and fibrinolysis (T, (s)) were also estimated.
# HUVEC cells = assay: Glucose utilization assay (2-NBDG uptake); format: cell-based, human; settings: 24 h, then insulin and 2-NBDG
# Experimental: HUVEC were seeded at a density of 20,000 cells per well in 48-well plates, and were cultured in standard conditions for 24 h (medium EGM-2; volume 0.2 mL). Following this, compounds 1–8 were added at concentrations of 0.1 and 0.3 mM, and the HUVECs were incubated for another 24 h. Cells treated with ᴅ-glucose (final concentration in a sample 0.1 mM) were used as positive controls. On the following day, the cells were rinsed with PBS (Biomed Lublin, Lublin, Poland) and cultured for two hours in glucose-free DMEM medium supplemented with 1% BSA (bovine serum albumin, Sigma, St. Louis, MO, USA). Then, the cells were co-treated with insulin (final concentration 0.0001 mM) for 30 min. Afterwards, the medium was discarded and the cells were treated with 2-NBDG (final concentration 0.05 mM) for 30 min, followed by removal of the solutions of each well. The cells were washed twice with 100 µL PBS, and lysed using 1% Triton X-100 solution in PBS. The fluorescence was recorded using a microplate reader (Biotek, Instruments, Winooski, VT, USA) at 480/530 nm.
# The concentration of intracellular 2-NBDG was calculated using a calibration curve obtained using 2-NBDG at concentrations ranging from 0.0001 to 0.025 mM in lysis buffer. The results are presented as mean ± SD, n = 4–6. The coefficient of variation for the assay was calculated (CV = 2.2%, n = 8).
# Chain of antithrombin III (AT) (P01008 33-464): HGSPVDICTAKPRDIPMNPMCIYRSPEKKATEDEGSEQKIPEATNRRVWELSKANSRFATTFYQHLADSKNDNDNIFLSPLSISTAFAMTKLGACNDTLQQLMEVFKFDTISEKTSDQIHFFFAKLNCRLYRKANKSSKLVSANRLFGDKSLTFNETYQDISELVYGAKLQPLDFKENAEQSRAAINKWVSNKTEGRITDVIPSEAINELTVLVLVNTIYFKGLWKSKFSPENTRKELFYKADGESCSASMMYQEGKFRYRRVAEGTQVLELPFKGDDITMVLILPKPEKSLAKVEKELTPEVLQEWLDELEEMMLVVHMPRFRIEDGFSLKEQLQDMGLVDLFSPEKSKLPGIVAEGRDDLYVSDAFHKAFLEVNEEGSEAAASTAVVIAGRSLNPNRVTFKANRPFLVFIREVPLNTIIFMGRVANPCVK
structure (smiles),measurement,setting,value
CN(C)C(=N)N=C(N)NS(=O)(=O)C1CCCCC1 [Compound 3],activity of AT III,antithrombin III (AT); 0.06 mM,113.00 ± 10.13%
same,activity of AT III,antithrombin III (AT); 0.3 mM,117.25 ± 5.50%
same,activity of AT III,antithrombin III (AT); 0.6 mM,131.75 ± 6.65%
same,activity of AT III,antithrombin III (AT); 1.5 mM,136.75 ± 11.32%
same,Fmax—maximum clotting,[1]; 0.06 mM,65.40 ± 9.39 %T
same,Fvo—initial plasma clotting velocity,[1]; 0.06 mM,208.17 ± 44.80 %T/min
same,Lmax—maximum lysis,[1]; 0.06 mM,71.38 ± 8.36 %T
same,Lvo—initial clot fibrinolysis velocity,[1]; 0.06 mM,20.38 ± 5.24 %T/min
same,Sc—area under the curve of a stable clot formation,[1]; 0.06 mM,314.15 ± 49.14 %T x min
same,Sf—area under the clot formation curve,[1]; 0.06 mM,48.52 ± 10.81 %T x min
same,Sl (area under the fibrinolysis curve),[1]; 0.06 mM,156.16 ± 30.07 %T x min
same,S—overall potential of clot formation and fibrinolysis (CLAUC),[1]; 0.06 mM,521.91 ± 66.81 %T x min
same,Tc—clot stabilization time,[1]; 0.06 mM,279.50 ± 46.51 s
same,Tf—plasma clotting time,[1]; 0.06 mM,57.45 ± 8.71 s
same,Tl—fibrinolysis time,[1]; 0.06 mM,235.33 ± 48.33 s
same,Tt—thrombin time,[1]; 0.06 mM,16.68 ± 3.26 s
same,T—total time of the process of clot formation and fibrinolysis,[1]; 0.06 mM,588.97 ± 87.54 s
same,Fmax—maximum clotting,[1]; 0.3 mM,68.78 ± 4.04 %T
same,Fvo—initial plasma clotting velocity,[1]; 0.3 mM,214.17 ± 32.05 %T/min
same,Lmax—maximum lysis,[1]; 0.3 mM,70.15 ± 3.87 %T
same,Lvo—initial clot fibrinolysis velocity,[1]; 0.3 mM,22.88 ± 8.98 %T/min
same,Sc—area under the curve of a stable clot formation,[1]; 0.3 mM,335.21 ± 50.51 %T x min
same,Sf—area under the clot formation curve,[1]; 0.3 mM,44.41 ± 6.00 %T x min
same,Sl (area under the fibrinolysis curve),[1]; 0.3 mM,142.20 ± 37.46 %T x min
same,S—overall potential of clot formation and fibrinolysis (CLAUC),[1]; 0.3 mM,521.82 ± 88.83 %T x min
same,Tc—clot stabilization time,[1]; 0.3 mM,299.50 ± 38.60 s
same,Tf—plasma clotting time,[1]; 0.3 mM,55.13 ± 7.55 s
same,Tl—fibrinolysis time,[1]; 0.3 mM,229.17 ± 48.85 s
same,Tt—thrombin time,[1]; 0.3 mM,16.23 ± 4.22 s
same,T—total time of the process of clot formation and fibrinolysis,[1]; 0.3 mM,600.03 ± 91.80 s
same,Fmax—maximum clotting,[1]; 0.6 mM,66.60 ± 4.00 %T
same,Fvo—initial plasma clotting velocity,[1]; 0.6 mM,211.50 ± 22.76 %T/min
same,Lmax—maximum lysis,[1]; 0.6 mM,67.55 ± 4.50 %T
same,Lvo—initial clot fibrinolysis velocity,[1]; 0.6 mM,23.53 ± 6.67 %T/min
same,Sc—area under the curve of a stable clot formation,[1]; 0.6 mM,323.11 ± 42.53 %T x min
same,Sf—area under the clot formation curve,[1]; 0.6 mM,42.40 ± 3.94 %T x min
same,Sl (area under the fibrinolysis curve),[1]; 0.6 mM,137.48 ± 23.47 %T x min
same,S—overall potential of clot formation and fibrinolysis (CLAUC),[1]; 0.6 mM,502.99 ± 64.69 %T x min
same,Tc—clot stabilization time,[1]; 0.6 mM,299.50 ± 40.90 s
same,Tf—plasma clotting time,[1]; 0.6 mM,54.73 ± 5.88 s
same,Tl—fibrinolysis time,[1]; 0.6 mM,234.83 ± 42.86 s
same,Tt—thrombin time,[1]; 0.6 mM,17.17 ± 3.17 s
same,T—total time of the process of clot formation and fibrinolysis,[1]; 0.6 mM,606.23 ± 87.70 s
same,Fmax—maximum clotting,[1]; 1.5 mM,63.60 ± 5.36 %T
same,Fvo—initial plasma clotting velocity,[1]; 1.5 mM,199.50 ± 18.07 %T/min
same,Lmax—maximum lysis,[1]; 1.5 mM,63.92 ± 5.38 %T
same,Lvo—initial clot fibrinolysis velocity,[1]; 1.5 mM,23.50 ± 13.77 %T/min
same,Sc—area under the curve of a stable clot formation,[1]; 1.5 mM,368.60 ± 84.14 %T x min
same,Sf—area under the clot formation curve,[1]; 1.5 mM,47.68 ± 7.07 %T x min
same,Sl (area under the fibrinolysis curve),[1]; 1.5 mM,143.17 ± 38.79 %T x min
same,S—overall potential of clot formation and fibrinolysis (CLAUC),[1]; 1.5 mM,559.45 ± 127.25 %T x min
same,Tc—clot stabilization time,[1]; 1.5 mM,355.50 ± 66.77 s
same,Tf—plasma clotting time,[1]; 1.5 mM,62.35 ± 6.00 s
same,Tl—fibrinolysis time,[1]; 1.5 mM,253.17 ± 62.51 s
same,Tt—thrombin time,[1]; 1.5 mM,18.15 ± 4.30 s
same,T—total time of the process of clot formation and fibrinolysis,[1]; 1.5 mM,689.17 ± 134.48 s
same,Glucose uptake (intracellular 2-NBDG),HUVEC cells; 0.1 mM,0.0137 ± 0.0003 mM
same,Glucose uptake (intracellular 2-NBDG),HUVEC cells; 0.3 mM,0.0144 ± 0.0005 mM
